Measured values taken from the Kinase Knowledgebase extract (Sharma et al. 2016).

What follows are compounds tested against ROCK2 (human) (UniProt O75116) (assay: Inhibition of ROCK2 Kinase Activity).
ROCK2 (human), sequence (O75116 whole entry, looked up): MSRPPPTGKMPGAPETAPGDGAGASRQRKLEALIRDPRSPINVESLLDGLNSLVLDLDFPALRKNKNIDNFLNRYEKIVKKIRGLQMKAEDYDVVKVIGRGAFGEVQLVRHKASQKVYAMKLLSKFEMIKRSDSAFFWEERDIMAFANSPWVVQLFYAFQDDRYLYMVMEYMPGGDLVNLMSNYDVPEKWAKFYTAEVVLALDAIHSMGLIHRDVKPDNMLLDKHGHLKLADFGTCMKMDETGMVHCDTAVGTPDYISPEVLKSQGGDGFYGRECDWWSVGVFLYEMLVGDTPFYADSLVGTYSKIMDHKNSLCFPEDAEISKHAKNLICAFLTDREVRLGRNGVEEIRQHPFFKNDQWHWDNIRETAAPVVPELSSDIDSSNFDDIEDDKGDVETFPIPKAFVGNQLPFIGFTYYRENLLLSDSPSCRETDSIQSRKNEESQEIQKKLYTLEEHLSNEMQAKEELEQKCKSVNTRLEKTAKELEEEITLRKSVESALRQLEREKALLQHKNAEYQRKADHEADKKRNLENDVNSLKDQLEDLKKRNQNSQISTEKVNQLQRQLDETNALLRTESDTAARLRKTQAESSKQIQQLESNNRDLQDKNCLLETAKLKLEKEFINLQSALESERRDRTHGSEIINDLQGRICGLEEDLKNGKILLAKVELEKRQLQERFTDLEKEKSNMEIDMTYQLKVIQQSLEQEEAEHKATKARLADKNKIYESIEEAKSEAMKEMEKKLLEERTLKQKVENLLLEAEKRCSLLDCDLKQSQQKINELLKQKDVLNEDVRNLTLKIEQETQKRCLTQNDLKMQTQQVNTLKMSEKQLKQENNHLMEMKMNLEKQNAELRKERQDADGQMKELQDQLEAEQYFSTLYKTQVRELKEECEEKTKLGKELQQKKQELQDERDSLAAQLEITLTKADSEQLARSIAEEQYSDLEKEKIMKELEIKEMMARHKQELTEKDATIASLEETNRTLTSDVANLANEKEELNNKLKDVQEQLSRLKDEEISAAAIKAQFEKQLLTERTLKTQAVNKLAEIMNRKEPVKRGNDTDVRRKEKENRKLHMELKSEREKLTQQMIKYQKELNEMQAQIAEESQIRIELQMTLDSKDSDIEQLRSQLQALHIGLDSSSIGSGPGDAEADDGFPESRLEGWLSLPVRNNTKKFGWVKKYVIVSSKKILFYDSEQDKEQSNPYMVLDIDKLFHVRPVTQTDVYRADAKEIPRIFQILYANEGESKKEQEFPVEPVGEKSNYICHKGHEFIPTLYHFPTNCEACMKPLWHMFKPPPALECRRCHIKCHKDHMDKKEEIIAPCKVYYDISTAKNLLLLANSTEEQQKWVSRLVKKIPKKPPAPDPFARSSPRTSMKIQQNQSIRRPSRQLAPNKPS

| SMILES | IC50 [nM] |
| --- | --- |
| COc1ccc(Cl)cc1C1CCCCN1C(=O)CC(N)c1ccc(C(=O)Nc2ccncc2)cc1 (configuration not stated) | < 500 |
| COc1ccc(S(=O)(=O)NCC(N)c2ccc(C(=O)Nc3ccncc3)cc2)cc1OC (configuration not stated) | < 500 |
| NC(CNS(=O)(=O)c1cccc2nsnc12)c1ccc(C(=O)Nc2ccncc2)cc1 (configuration not stated) | < 500 |
| NC(c1ccc(C(=O)Nc2ccncc2)cc1)C1CCCN1S(=O)(=O)c1ccc(Cl)cc1 (configuration not stated) | 500 to 5000 |
| NC(C(=O)NCCc1ccc(F)cc1)c1ccc(C(=O)Nc2ccncc2)cc1 (configuration not stated) | < 500 |
| N[C@H](C(=O)NCc1ccccc1)c1ccc(C(=O)Nc2ccncc2)cc1 | < 500 |
| CN(CCO)C(=O)C(N)c1ccc(C(=O)Nc2ccncc2)cc1 (configuration not stated) | 500 to 5000 |
| COCC(C)NC(=O)C(N)c1ccc(C(=O)Nc2ccncc2)cc1 (configuration not stated) | 500 to 5000 |
| NC(CNS(=O)(=O)c1ccccc1)c1ccc(C(=O)Nc2ccncc2)cc1 (configuration not stated) | < 500 |
| Cc1ccc(CN2CCC(NC(=O)C(N)c3ccc(C(=O)Nc4ccncc4)cc3)CC2)s1 (configuration not stated) | 500 to 5000 |
| NC(C(=O)N1CCC(O)(c2ccccc2)CC1)c1ccc(C(=O)Nc2ccncc2)cc1 (configuration not stated) | 500 to 5000 |
| CC[C@H](NC(=O)C(N)c1ccc(C(=O)Nc2ccncc2)cc1)c1ccccc1 (some centres not stated) | 500 to 5000 |
| COc1ccc(S(=O)(=O)N2CCCC2C(N)c2ccc(C(=O)Nc3ccncc3)cc2)cc1 (configuration not stated) | 500 to 5000 |
| CN(CC(N)c1ccc(C(=O)Nc2ccncc2)cc1)S(=O)(=O)c1ccc(Cl)cc1 (configuration not stated) | 500 to 5000 |
| CCCCS(=O)(=O)NCC(N)c1ccc(C(=O)Nc2ccncc2)cc1 (configuration not stated) | < 500 |
| NC(CNS(=O)(=O)c1ccccc1Cl)c1ccc(C(=O)Nc2ccncc2)cc1 (configuration not stated) | < 500 |
| NC(C(=O)N1CC=C(c2ccc(F)cc2)CC1)c1ccc(C(=O)Nc2ccncc2)cc1 (configuration not stated) | 500 to 5000 |
| CCCCNNC(=O)C(N)c1ccc(C(=O)Nc2ccncc2)cc1 (configuration not stated) | < 500 |
| CCS(=O)(=O)NCC(N)c1ccc(C(=O)Nc2ccncc2)cc1 (configuration not stated) | < 500 |
| CCC(C)(C)NC(=O)C(N)c1ccc(C(=O)Nc2ccncc2)cc1 (configuration not stated) | 500 to 5000 |
| NC(CC(=O)N1CCCCC1c1cccc2ccccc12)c1ccc(C(=O)Nc2ccncc2)cc1 (configuration not stated) | < 500 |
| COc1ccc(S(=O)(=O)N(C)CC(N)c2ccc(C(=O)Nc3ccncc3)cc2)cc1 (configuration not stated) | < 500 |
| CN(Cc1ccccc1)C(=O)C(N)c1ccc(C(=O)Nc2ccncc2)cc1 (configuration not stated) | < 500 |
| COCCNC(=O)C(N)c1ccc(C(=O)Nc2ccncc2)cc1 (configuration not stated) | 500 to 5000 |

| SMILES | IC50 [nM] |
| --- | --- |
| NC(C(=O)NCc1cccc(Cl)c1)c1ccc(C(=O)Nc2ccncc2)cc1 (configuration not stated) | < 500 |
| NC(C(=O)N1CCN(c2ccccc2)CC1)c1ccc(C(=O)Nc2ccncc2)cc1 (configuration not stated) | 500 to 5000 |
| NC(C(=O)NC1CCN(Cc2ccccc2)CC1)c1ccc(C(=O)Nc2ccncc2)cc1 (configuration not stated) | 500 to 5000 |
| CN(CC(N)c1ccc(C(=O)Nc2ccncc2)cc1)S(=O)(=O)c1ccc(F)cc1 (configuration not stated) | 500 to 5000 |
| CC(C)C(C)NC(=O)C(N)c1ccc(C(=O)Nc2ccncc2)cc1 (configuration not stated) | 500 to 5000 |
| Cc1cccc(S(=O)(=O)NCC(N)c2ccc(C(=O)Nc3ccncc3)cc2)c1 (configuration not stated) | < 500 |
| N[C@@H](C(=O)NCc1ccccc1)c1ccc(C(=O)Nc2ccncc2)cc1 | 500 to 5000 |
| NC(CNS(=O)(=O)c1cccc(-c2ccccc2)c1)c1ccc(C(=O)Nc2ccncc2)cc1 (configuration not stated) | 500 to 5000 |
| NC(c1ccc(C(=O)Nc2ccncc2)cc1)C1CCCN1S(=O)(=O)c1ccccc1Cl (configuration not stated) | 500 to 5000 |
| CN(CC(N)c1ccc(C(=O)Nc2ccncc2)cc1)S(=O)(=O)c1cccc(Cl)c1 (configuration not stated) | 500 to 5000 |
| COc1ccc(CNC(=O)C(N)c2ccc(C(=O)Nc3ccncc3)cc2)cc1 (configuration not stated) | < 500 |
| CS(=O)(=O)NCCNC(=O)C(N)c1ccc(C(=O)Nc2ccncc2)cc1 (configuration not stated) | 500 to 5000 |
| NC(CNS(=O)(=O)c1ccc(Cl)cc1)c1ccc(C(=O)Nc2ccncc2)cc1 (configuration not stated) | < 500 |
| NC(CNS(=O)(=O)c1cccs1)c1ccc(C(=O)Nc2ccncc2)cc1 (configuration not stated) | < 500 |
| COC(=O)c1ccc(C2CCCCN2C(=O)CC(N)c2ccc(C(=O)Nc3ccncc3)cc2)cc1 (configuration not stated) | < 500 |
| CC(NC(=O)C(N)c1ccc(C(=O)Nc2ccncc2)cc1)c1ccccc1 (configuration not stated) | < 500 |
| COc1ccc(C2c3[nH]c4ccccc4c3CCN2C(=O)CC(N)c2ccc(C(=O)Nc3ccncc3)cc2)cc1Br (configuration not stated) | 500 to 5000 |
| NC(CC(=O)N1CCc2c([nH]c3ccccc23)C1c1cccc(Cl)c1)c1ccc(C(=O)Nc2ccncc2)cc1 (configuration not stated) | 500 to 5000 |
| NC(C(=O)N1CCN(Cc2ccc(F)cc2)CC1)c1ccc(C(=O)Nc2ccncc2)cc1 (configuration not stated) | 500 to 5000 |
| NC(CC(=O)N1CCCCC1c1cc(Cl)ccc1Cl)c1ccc(C(=O)Nc2ccncc2)cc1 (configuration not stated) | < 500 |
| CONC(=O)C(N)c1ccc(C(=O)Nc2ccncc2)cc1 (configuration not stated) | 500 to 5000 |
| NC(C(=O)NCCn1ccnc1)c1ccc(C(=O)Nc2ccncc2)cc1 (configuration not stated) | 500 to 5000 |
| Cc1noc(C)c1S(=O)(=O)NCC(N)c1ccc(C(=O)Nc2ccncc2)cc1 (configuration not stated) | < 500 |
| COc1ccc(OC)c(S(=O)(=O)NCC(N)c2ccc(C(=O)Nc3ccncc3)cc2)c1 (configuration not stated) | < 500 |

| SMILES | IC50 [nM] |
| --- | --- |
| NC(CNS(=O)(=O)c1ccc(Oc2ccccc2)cc1)c1ccc(C(=O)Nc2ccncc2)cc1 (configuration not stated) | 500 to 5000 |
| NC(CNS(=O)(=O)c1cccc2nonc12)c1ccc(C(=O)Nc2ccncc2)cc1 (configuration not stated) | < 500 |
| CN(CC(N)c1ccc(C(=O)Nc2ccncc2)cc1)S(=O)(=O)c1ccccc1F (configuration not stated) | 500 to 5000 |
| CCCS(=O)(=O)NCC(N)c1ccc(C(=O)Nc2ccncc2)cc1 (configuration not stated) | < 500 |
| NC(c1ccc(C(=O)Nc2ccncc2)cc1)C1CCCN1S(=O)(=O)c1cccc(F)c1 (configuration not stated) | 500 to 5000 |
| NC(CNS(=O)(=O)c1ccccc1F)c1ccc(C(=O)Nc2ccncc2)cc1 (configuration not stated) | < 500 |
| NC(C(=O)Nc1ccccc1)c1ccc(C(=O)Nc2ccncc2)cc1 (configuration not stated) | 500 to 5000 |
| NC(C(=O)N1CCc2ccccc2C1)c1ccc(C(=O)Nc2ccncc2)cc1 (configuration not stated) | < 500 |
| COc1ccc(S(=O)(=O)N(C)C[C@H](N)c2ccc(C(=O)Nc3ccncc3)cc2)cc1 | 5000 to 50000 |
| NC(CNS(=O)(=O)c1cccc(Cl)c1)c1ccc(C(=O)Nc2ccncc2)cc1 (configuration not stated) | < 500 |
| COc1ccc(CN2CCN(C(=O)C(N)c3ccc(C(=O)Nc4ccncc4)cc3)CC2)cc1 (configuration not stated) | 500 to 5000 |
| NC(C(=O)N1CCN(Cc2ccccc2F)CC1)c1ccc(C(=O)Nc2ccncc2)cc1 (configuration not stated) | 500 to 5000 |
| CCCCCCCCS(=O)(=O)NCC(N)c1ccc(C(=O)Nc2ccncc2)cc1 (configuration not stated) | 500 to 5000 |
| NC(C(=O)NCc1ccco1)c1ccc(C(=O)Nc2ccncc2)cc1 (configuration not stated) | < 500 |
| NC(C(=O)N1CCC(c2nc3ccccc3o2)CC1)c1ccc(C(=O)Nc2ccncc2)cc1 (configuration not stated) | < 500 |
| COc1cccc(C2CCCCN2C(=O)CC(N)c2ccc(C(=O)Nc3ccncc3)cc2)c1 (configuration not stated) | < 500 |
| CC1CN(C(=O)C(N)c2ccc(C(=O)Nc3ccncc3)cc2)CC(C)O1 (configuration not stated) | 500 to 5000 |
| NC(CNS(=O)(=O)c1ccc(F)cc1)c1ccc(C(=O)Nc2ccncc2)cc1 (configuration not stated) | < 500 |
| NC(CC(=O)N1CCCC1c1ccc(F)cc1F)c1ccc(C(=O)Nc2ccncc2)cc1 (configuration not stated) | < 500 |
| COc1ccc(NC(=O)C(N)c2ccc(C(=O)Nc3ccncc3)cc2)cc1 (configuration not stated) | < 500 |
| NC(C(=O)NCCc1cccs1)c1ccc(C(=O)Nc2ccncc2)cc1 (configuration not stated) | < 500 |
| NC(C(=O)NC1Cc2ccccc2C1)c1ccc(C(=O)Nc2ccncc2)cc1 (configuration not stated) | < 500 |

More lines, now with the values ahead:

| IC50 [nM] | SMILES |
| --- | --- |
| < 500 | NC(CC(=O)N1CCOCC1c1ccc(Cl)cc1)c1ccc(C(=O)Nc2ccncc2)cc1 (configuration not stated) |
| 500 to 5000 | NC(C(=O)NCC1CCCO1)c1ccc(C(=O)Nc2ccncc2)cc1 (configuration not stated) |
| < 500 | N[C@@H](CC(=O)N1CCC[C@@H]1c1cccc(F)c1)c1ccc(C(=O)Nc2ccncc2)cc1 |
| < 500 | NC(CC(=O)N1CCCC1c1ccc(F)cc1)c1ccc(C(=O)Nc2ccncc2)cc1 (configuration not stated) |
| < 500 | NC(CC(=O)N1CCC(O)(c2ccccc2)CC1)c1ccc(C(=O)Nc2ccncc2)cc1 (configuration not stated) |
| 500 to 5000 | COC(=O)c1ccc2c(c1)CCN(C(=O)CC(N)c1ccc(C(=O)Nc3ccncc3)cc1)C2 (configuration not stated) |
| < 500 | NC(CC(=O)N1CCC(c2nc3ccccc3o2)CC1)c1ccc(C(=O)Nc2ccncc2)cc1 (configuration not stated) |
| < 500 | NC(CC(=O)N1CCOCC1c1ccccc1)c1ccc(C(=O)Nc2ccncc2)cc1 (configuration not stated) |
| < 500 | NC(CC(=O)N1CCCC1c1ccccc1)c1ccc(C(=O)Nc2ccncc2)cc1 (configuration not stated) |
| < 500 | NC(CC(=O)N1CCCC2CCCCC21)c1ccc(C(=O)Nc2ccncc2)cc1 (configuration not stated) |
| < 500 | NC(CC(=O)N1CCC(Cc2ccccc2)CC1)c1ccc(C(=O)Nc2ccncc2)cc1 (configuration not stated) |
| < 500 | CC1CC(C)CN(C(=O)CC(N)c2ccc(C(=O)Nc3ccncc3)cc2)C1 (configuration not stated) |
| 500 to 5000 | CCNC(=O)C(N)c1ccc(C(=O)Nc2ccncc2)cc1 (configuration not stated) |
| < 500 | NC(CC(=O)N1CCCCC1c1ccc(Cl)cc1)c1ccc(C(=O)Nc2ccncc2)cc1 (configuration not stated) |
| < 500 | NC(CC(=O)N1CCCCC1)c1ccc(C(=O)Nc2ccncc2)cc1 (configuration not stated) |
| 500 to 5000 | NC(C(=O)NCCN1CCOCC1)c1ccc(C(=O)Nc2ccncc2)cc1 (configuration not stated) |

| IC50 [nM] | SMILES |
| --- | --- |
| 500 to 5000 | CC(C)N1CCN(C(=O)C(N)c2ccc(C(=O)Nc3ccncc3)cc2)CC1 (configuration not stated) |
| < 500 | NC(CC(=O)N1CC=C(c2ccc(F)cc2)CC1)c1ccc(C(=O)Nc2ccncc2)cc1 (configuration not stated) |
| 500 to 5000 | NC(C(=O)N1CCCC(CO)C1)c1ccc(C(=O)Nc2ccncc2)cc1 (configuration not stated) |
| < 500 | NC(CC(=O)N1CCOCC1)c1ccc(C(=O)Nc2ccncc2)cc1 (configuration not stated) |
| < 500 | NC(CC(=O)N1CCN(c2ccccc2)CC1)c1ccc(C(=O)Nc2ccncc2)cc1 (configuration not stated) |
| < 500 | NC(CC(=O)N1CCOCC1c1ccc(F)cc1)c1ccc(C(=O)Nc2ccncc2)cc1 (configuration not stated) |
| < 500 | NC(CC(=O)N1Cc2ccccc2C1)c1ccc(C(=O)Nc2ccncc2)cc1 (configuration not stated) |
| < 500 | CC(C)N1CCN(C(=O)CC(N)c2ccc(C(=O)Nc3ccncc3)cc2)CC1 (configuration not stated) |
| < 500 | CC1CN(C(=O)CC(N)c2ccc(C(=O)Nc3ccncc3)cc2)CC(C)O1 (configuration not stated) |
| < 500 | NC(CC(=O)N1CCC(c2ccccc2)CC1)c1ccc(C(=O)Nc2ccncc2)cc1 (configuration not stated) |
| 500 to 5000 | COc1ccc(CN2CCN(C(=O)CC(N)c3ccc(C(=O)Nc4ccncc4)cc3)CC2)cc1 (configuration not stated) |
| < 500 | NC(CC(=O)N1CCc2ccc(F)cc2C1)c1ccc(C(=O)Nc2ccncc2)cc1 (configuration not stated) |
| < 500 | N[C@@H](CC(=O)N1CCC[C@H]1c1cccc(F)c1)c1ccc(C(=O)Nc2ccncc2)cc1 |
| < 500 | N[C@H](CC(=O)N1CCC[C@H]1c1cccc(F)c1)c1ccc(C(=O)Nc2ccncc2)cc1 |
| < 500 | NC(CC(=O)N1CCCC1c1ccc(Cl)cc1)c1ccc(C(=O)Nc2ccncc2)cc1 (configuration not stated) |
| < 500 | NC(CC(=O)N1CCN(CCO)CC1)c1ccc(C(=O)Nc2ccncc2)cc1 (configuration not stated) |
